Measurements: publication PMC10693969 (Parasites, Hosts and Diseases, 2023)
Where “and” joins values, the source holds several entries; their conditions need not be identical. Equal values may be shown once. Read-outs that look alike come from different tables or passages of the source.

Legend:
[1] = Cytotoxicity against C6 glial cells; format: cell-based, rat; details: rat, C6 glial cells
[2] = system: A. castellanii (ATCC-30868) trophozoites; test: In vitro anti-Acanthamoeba activity, A. castellanii trophozoite viability; format: cell-based; details: for IC50: mean±SD of 3 independent experiments; for SI, sensitivity index (CC50 C6 glial cells / IC50 A. castellanii): ratio CC50 C6 glial cells / IC50 A. castellanii; for antiamoebic activity against A. castellanii (in words): in vitro
[3] = system: A. polyphaga (ATCC-30461) trophozoites; test: In vitro anti-Acanthamoeba activity, A. polyphaga trophozoite viability; format: cell-based; details: for IC50: mean±SD of 3 independent experiments; for SI, sensitivity index (CC50 C6 glial cells / IC50 A. polyphaga): ratio CC50 C6 glial cells / IC50 A. polyphaga; for antiamoebic activity against A. polyphaga (in words): in vitro
[4] = system: Naegleria fowleri trophozoites (Carter NF69 strain, ATCC 30215); test: In vitro anti-N. fowleri activity, trophozoite viability; format: cell-based; details: for IC50: mean±SD of 3 independent experiments; for SI, sensitivity index (CC50 C6 glial cells / IC50 N. fowleri): ratio CC50 C6 glial cells / IC50 N. fowleri; for antiamoebic activity against N. fowleri (in words): in vitro
[5] = system: C6 rat glial cells (ATCC CCL-107); test: Cytotoxicity against C6 glial cells; format: cell-based; details: read-out: C6 glial cells (CC50 ±SD); C6 rat glial cells, 0–400 μM; mean±SD of 3 independent assays
[6] = Acanthamoeba castellanii, ATCC30868, 48 h, read-out: A. castellanii (IC50 ±SD, μM), trophozoites, 0–400 μM, 25°C, 48 h
[7] = read-out: A. castellanii (IC50 ±SD), trophozoites, 0–400 μM, 25°C, 48 h
[8] = Acanthamoeba polyphaga, ATCC30461, 48 h, read-out: A. polyphaga (IC50 ±SD, μM), trophozoites, 0–400 μM, 25°C, 48 h
[9] = read-out: A. polyphaga (IC50 ±SD), trophozoites, 0–400 μM, 25°C, 48 h
[10] = Naegleria fowleri, ATCC30215, 48 h, read-out: N. fowleri (IC50 ±SD, μM), trophozoites, 0–400 μM, 37°C, 48 h
[11] = read-out: N. fowleri (IC50 ±SD), trophozoites, 0–400 μM, 37°C, 48 h
[12] = trophozoites, listed as berberine

| Molecule | CC50 [1] [µM] | IC50 [2, 6] [µM] | SI, sensitivity index (CC50 C6 glial cells / IC50 A. castellanii) [2] | IC50 [2, 7] [µM] | IC50 [3, 8] [µM] | SI, sensitivity index (CC50 C6 glial cells / IC50 A. polyphaga) [3] | IC50 [3, 9] [µM] | IC50 [4, 10] [µM] | SI, sensitivity index (CC50 C6 glial cells / IC50 N. fowleri) [4] | IC50 [4, 11] [µM] | antiamoebic activity against A. castellanii (in words) ([2]; trophozoites) | antiamoebic activity against A. polyphaga (in words) ([3]; trophozoites) | other results |
| --- | --- | --- | --- | --- | --- | --- | --- | --- | --- | --- | --- | --- | --- |
| Oc1cc(O)c2c(c1)O[C@H](c1ccc(O)c(O)c1)[C@H](O)C2 [(−)-Epicatechin, (−)-epicatechin] | 318.6 ± 0.82 | < 50 | 9.55 | 33.4 ± 0.68 | < 50 | 12.73 | 25.02 ± 0.14 | 102.6 ± 0.97 | 3.11 | – | – | – | SI, sensitivity index (CC50 C6 glial cells / IC50 A. castellanii) ([2]; listed as (−)-epicatechin): > 8; SI, sensitivity index (CC50 C6 glial cells / IC50 A. polyphaga) ([3]; listed as (−)-epicatechin): > 8; antiamoebic activity against N. fowleri (in words) ([4]; trophozoites): did not show significative anti-N. fowleri activities |
| Oc1cc(O)c2c(c1)O[C@H](c1cc(O)c(O)c(O)c1)[C@H](O)C2 [(−)-Epigallocatechin, (−)-epigallocatechin] | – | – | 8.68 | 32.1 ± 1.03 | – | 11.55 | 24.16 ± 0.16 | – | 2.44 | 114.6 ± 0.48 | – | – | CC50 [5]: 279 ± 0.3 µM; SI, sensitivity index (CC50 C6 glial cells / IC50 A. castellanii) ([2]; listed as (−)-epigallocatechin): > 8; IC50 ([2]; read-out: A. castellanii (IC50 ±SD), trophozoites, 0–400 μM, 25°C, 48 h, listed as (−)-epigallocatechin): < 50 µM; SI, sensitivity index (CC50 C6 glial cells / IC50 A. polyphaga) ([3]; listed as (−)-epigallocatechin): > 8; IC50 ([3]; read-out: A. polyphaga (IC50 ±SD), trophozoites, 0–400 μM, 25°C, 48 h, listed as (−)-epigallocatechin): < 50 µM; antiamoebic activity against N. fowleri (in words) ([4]; trophozoites): did not show significative anti-N. fowleri activities |
| C=C1CC/C=C(\C)CC[C@@H]2[C@@H]1CC2(C)C [(−)-trans-Caryophyllene, (−)-trans-caryophyllene] | 220 ± 2.42 | 65.1 ± 1.42 | 3.39 | – | 44.8 ± 1.41 | 4.92 | – | 84.78 ± 0.65 | 2.60 | – | – | – | – |
| C[C@@H]1O[C@@H](Oc2c(-c3ccc(O)cc3)oc3cc(O)cc(O)c3c2=O)[C@H](O)[C@H](O)[C@H]1O [Afzelin, afzelin] | > 230 | > 230 | – | – | > 230 | – | – | > 230 | – | – | did not exhibit potential or selective antiamoebic activity | did not exhibit potential or selective antiamoebic activity | – |
| CC[C@H]1OC(=O)[C@H](C)[C@@H](O[C@H]2C[C@@](C)(OC)[C@@H](O)[C@H](C)O2)[C@H](C)[C@@H](O[C@@H]2O[C@H](C)C[C@H](N(C)C)[C@H]2O)[C@](C)(O)C[C@@H](C)CN(C)[C@H](C)[C@@H](O)[C@]1(C)O [Azithromycin, Azithromycin dihydrate, reference compound] | 86.2 ± 0.93 | 12.1 ± 0.2 | 7.12 | – | 4.12 ± 0.11 | 20.93 | – | 14.7 ± 1.65 | 5.88 | – | – | – | – |
| COc1ccc2cc3[n+](cc2c1OC)CCc1cc2c(cc1-3)OCO2 [Berberine, berberine] | 159.7 ± 1.23 | > 260 | – | – | > 260 | – | – | > 260 | – | – | did not affect | did not affect | antiamoebic activity against A. castellanii (in words) [2, 12]: did not exhibit potential or selective antiamoebic activity; antiamoebic activity against A. polyphaga (in words) [3, 12]: did not exhibit potential or selective antiamoebic activity; antiamoebic activity against N. fowleri (in words) ([4]; trophozoites): did not affect |
| C=C1C(=O)O[C@@H]2/C=C(\C)CC/C=C(\C)CC[C@@H]12 [Costunolide, costunolide] | 191.2 ± 1.18 | < 50 | 5.97 | 32 ± 1.14 | < 50 | 5.44 | 35.1 ± 0.74 | 65.56 ± 0.58 | 2.92 | – | – | – | – |
| O=c1c(-c2ccc(O)cc2)coc2cc(O)cc(O)c12 [Genistein, genistein] | 104 ± 1.08 | > 370 | – | – | > 370 | – | – | 157.4 ± 0.57 | 0.66 | – | did not exhibit potential or selective antiamoebic activity | did not exhibit potential or selective antiamoebic activity | – |
| O=c1c(O)c(-c2ccc(O)cc2)oc2cc(O)cc(O)c12 [Kaempferol, kaempferol] | 333.8 ± 0.99 | – | 15.43 | 21.6 ± 1.28 | < 50 | 11.67 | 28.6 ± 1.17 | < 30 | 12.00 | 27.8 ± 0.33 | – | – | SI, sensitivity index (CC50 C6 glial cells / IC50 A. castellanii) ([2]; listed as kaempferol): > 8; IC50 ([2]; read-out: A. castellanii (IC50 ±SD), trophozoites, 0–400 μM, 25°C, 48 h, listed as kaempferol): < 40 µM; SI, sensitivity index (CC50 C6 glial cells / IC50 A. polyphaga) ([3]; listed as kaempferol): > 8; IC50 ([3]; read-out: A. polyphaga (IC50 ±SD), trophozoites, 0–400 μM, 25°C, 48 h, listed as kaempferol): < 40 µM; SI, sensitivity index (CC50 C6 glial cells / IC50 N. fowleri) ([4]; listed as kaempferol): > 7 and > 8; IC50 ([4]; read-out: N. fowleri (IC50 ±SD), trophozoites, 0–400 μM, 37°C, 48 h, listed as kaempferol): < 40 µM |
| O=c1cc(-c2ccc(O)c(O)c2)oc2cc(O)cc(O)c12 [Luteolin, luteolin] | > 350 | > 350 | – | – | 40.2 ± 0.47 | – | – | < 30 | – | 27.4 ± 0.61 | not effective | effective | – |
| CCCCCCCCCCCCCCCCOP(=O)([O-])OCC[N+](C)(C)C [Miltefosine, miltefosine, reference compound] | > 245 | 213.2 ± 1.22 | >1.15 | – | 227.5 ± 0.36 | >1.08 | – | 153.3 ± 1.3 | >1.60 | – | – | – | – |
| O=c1c(O)c(-c2ccc(O)c(O)c2)oc2cc(O)cc(O)c12 [Quercetin, quercetin] | > 330 | > 330 | – | – | 320.8 ± 0.33 | >1.03 | – | > 330 | – | – | did not exhibit potential or selective antiamoebic activity | did not exhibit potential or selective antiamoebic activity | – |
| O=C(/C=C/c1ccc(O)c(O)c1)O[C@H](Cc1ccc(O)c(O)c1)C(=O)O [Rosmarinic acid, rosmarinic acid] | > 278 | < 50 | >8.77 | 31.66 ± 0.31 | – | >12.38 | 22.4 ± 0.78 | 77.7 ± 0.97 | >3.57 | – | – | – | SI, sensitivity index (CC50 C6 glial cells / IC50 A. castellanii) ([2]; listed as rosmarinic acid): > 8; SI, sensitivity index (CC50 C6 glial cells / IC50 A. polyphaga) ([3]; listed as rosmarinic acid): > 8; IC50 ([3]; read-out: A. polyphaga (IC50 ±SD), trophozoites, 0–400 μM, 25°C, 48 h, listed as rosmarinic acid): < 50 µM; antiamoebic activity against N. fowleri (in words) ([4]; trophozoites): did not show significative anti-N. fowleri activities |
| (+)-pinostrobin | – | – | – | > 370 | – | – | > 370 | – | – | > 370 | did not exhibit potential or selective antiamoebic activity | did not exhibit potential or selective antiamoebic activity | CC50 [5]: > 370 µM |
| (±)-catechin hydrate | – | – | – | > 345 | – | – | > 345 | – | – | > 345 | did not exhibit potential or selective antiamoebic activity | did not exhibit potential or selective antiamoebic activity | CC50 [5]: > 345 µM |
| silybin (A+B) mixture | – | – | 4.08 | 24.5 ± 0.56 | – | 6.31 | 15.82 ± 0.06 | – | 4.13 | 24.2 ± 0.27 | – | – | CC50 [5]: 99.89 ± 0.78 µM; IC50 ([2]; read-out: A. castellanii (IC50 ±SD), trophozoites, 0–400 μM, 25°C, 48 h, listed as silybin (A+B)): < 50 µM; IC50 ([3]; read-out: A. polyphaga (IC50 ±SD), trophozoites, 0–400 μM, 25°C, 48 h, listed as silybin (A+B)): < 50 µM |
